Experimental data from ChEMBL document CHEMBL1147193, “New 5-substituted thiazolo[3,2-b][1,2,4]triazol-6-ones: synthesis and anticancer evaluation” (2007).

How the values were obtained:
Type in all cases: functional
NCI/ADR-RES = assay: Growth inhibition of human NCI/ADR-RES cells after 48 hrs by SRB protein assay; conditions: for TGI: read-out: Log TGI (converted)
HOP-62 = assay: Growth inhibition of human HOP62 cells after 48 hrs by SRB protein assay; conditions: HOP-62, 48 h; for TGI: read-out: Log TGI (converted)
BT-549 = assay: Growth inhibition of human BT549 cells after 48 hrs by SRB protein assay; conditions: BT-549, 48 h; for TGI: read-out: Log TGI (converted)
EKVX = assay: Growth inhibition of human EKVX cells after 48 hrs by SRB protein assay; conditions: for TGI: read-out: Log TGI (converted)
HT-29 = assay: Growth inhibition of human HT29 cells after 48 hrs by SRB protein assay; conditions: HT-29, 48 h; for TGI: read-out: Log TGI (converted)
HL-60 = assay: Growth inhibition of human HL60 cells after 48 hrs by SRB protein assay; conditions: HL-60, 48 h; for TGI: read-out: Log TGI (converted)
786-0 = assay: Growth inhibition of human 786-0 cells after 48 hrs by SRB protein assay; conditions: 786-0, 48 h; for TGI: read-out: Log TGI (converted)
RXF 393 = assay: Growth inhibition of human RXF393 cells after 48 hrs by SRB protein assay; conditions: RXF 393, 48 h; for TGI: read-out: Log TGI (converted)
SNB-19 = assay: Growth inhibition of human SNB19 cells after 48 hrs by SRB protein assay; conditions: SNB-19, 48 h; for TGI: read-out: Log TGI (converted)
T47D = assay: Growth inhibition of human T47D cells after 48 hrs by SRB protein assay; conditions: for TGI: read-out: Log TGI (converted)
HCT-116 = assay: Growth inhibition of human HCT116 cells after 48 hrs by SRB protein assay; conditions: HCT-116, 48 h; for TGI: read-out: Log TGI (converted)
MOLT-4 = assay: Growth inhibition of human MOLT4 cells after 48 hrs by SRB protein assay; conditions: MOLT-4, 48 h; for TGI: read-out: Log TGI (converted)
NCI-H226 = assay: Growth inhibition of human NCI-H226 cells after 48 hrs by SRB protein assay; conditions: NCI-H226, 48 h; for TGI: read-out: Log TGI (converted)
K562 = assay: Growth inhibition of human K562 cells after 48 hrs by SRB protein assay; conditions: K562, 48 h; for TGI: read-out: Log TGI (converted)
NCI-H522 = assay: Growth inhibition of human NCI-H522 cells after 48 hrs by SRB protein assay; conditions: NCI-H522, 48 h; for TGI: read-out: Log TGI (converted)
A498 = assay: Growth inhibition of human A498 cells after 48 hrs by SRB protein assay; conditions: A498, 48 h; for TGI: read-out: Log TGI (converted)
DU-145 = assay: Growth inhibition of human DU145 cells after 48 hrs by SRB protein assay; conditions: DU-145, 48 h; for TGI: read-out: Log TGI (converted)
NCI-H23 = assay: Growth inhibition of human NCI-H23 cells after 48 hrs by SRB protein assay; conditions: NCI-H23, 48 h; for TGI: read-out: Log TGI (converted)
SK-MEL-2 = assay: Growth inhibition of human SK-MEL-2 cells after 48 hrs by SRB protein assay; conditions: SK-MEL-2, 48 h; for TGI: read-out: Log TGI (converted)
SR = assay: Growth inhibition of human SR cells after 48 hrs by SRB protein assay
SF-539 = assay: Growth inhibition of human SF539 cells after 48 hrs by SRB protein assay; conditions: SF-539, 48 h; for TGI: read-out: Log TGI (converted)
SNB-75 = assay: Growth inhibition of human SNB75 cells after 48 hrs by SRB protein assay; conditions: SNB-75, 48 h

Compound `CCOC(=O)c1ccc(NC(=O)CC2Sc3ncnn3C2=O)cc1` (stereo unspecified) has a GI50 (NCI/ADR-RES) of 18.2 µM, a TGI (NCI/ADR-RES) of 36.3 µM and a GI50 (HOP-62) of 21.4 µM. For the same compound, the TGI (HOP-62) was 47.9 µM, the GI50 (BT-549) was 21.9 µM and the TGI (BT-549) was 43.7 µM. For the same compound, the GI50 (EKVX) was 28.2 µM, the TGI (EKVX) was 69.2 µM and the GI50 (HT-29) was 43.7 µM. It also gave a TGI (HT-29) greater than 100 µM, a GI50 (HL-60) of 46.8 µM and a TGI (HL-60) greater than 100 µM. The GI50 (786-0) was 15.5 µM, the TGI (786-0) was 28.8 µM and the GI50 (RXF 393) was 21.4 µM. It also gave a TGI (RXF 393) of 67.6 µM, a GI50 (SNB-19) greater than 100 µM and a TGI (SNB-19) greater than 100 µM. It also gave a GI50 (T47D) of 23.4 µM, a TGI (T47D) of 57.5 µM and a GI50 (HCT-116) of 15.8 µM. For the same compound, the TGI (HCT-116) was 29.5 µM, the GI50 (MOLT-4) was 33.9 µM and the TGI (MOLT-4) was 66.1 µM. The GI50 (NCI-H226) was 26.3 µM, the TGI (NCI-H226) was 66.1 µM and the GI50 (K562) was 95.5 µM. For the same compound, the TGI (K562) was greater than 100 µM.

`O=C(CC1Sc2ncnn2C1=O)Nc1ccc(Br)cc1` (stereo unspecified) showed a GI50 (NCI/ADR-RES) of 25.1 µM, a TGI (NCI/ADR-RES) of 70.8 µM and a GI50 (HOP-62) greater than 100 µM. The TGI (HOP-62) was greater than 100 µM, the GI50 (NCI-H522) was 20.4 µM and the TGI (NCI-H522) was 57.5 µM. It also gave a GI50 (A498) of 12.3 µM, a TGI (A498) of 57.5 µM and a GI50 (BT-549) greater than 100 µM. The TGI (BT-549) was greater than 100 µM, the GI50 (EKVX) was 31.6 µM and the TGI (EKVX) was greater than 100 µM. It also gave a GI50 (DU-145) of 38.9 µM, a TGI (DU-145) greater than 100 µM and a GI50 (NCI-H23) of 20.9 µM. The TGI (NCI-H23) was 43.7 µM, the GI50 (HT-29) was 28.2 µM and the TGI (HT-29) was greater than 100 µM. It also gave a GI50 (HL-60) of 19.5 µM, a TGI (HL-60) greater than 100 µM and a GI50 (SK-MEL-2) of 66.1 µM. It also gave a TGI (SK-MEL-2) greater than 100 µM, a GI50 (SR) of 18.2 µM and a TGI (SR; read-out: Log TGI (converted)) greater than 100 µM. The GI50 (786-0) was 16.6 µM, the TGI (786-0) was 30.2 µM and the GI50 (SF-539) was 20.9 µM. For the same compound, the TGI (SF-539) was 46.8 µM, the GI50 (RXF 393) was 12.9 µM and the TGI (RXF 393) was 31.6 µM. The GI50 (T47D) was 18.2 µM, the TGI (T47D) was 45.7 µM and the GI50 (HCT-116) was 15.8 µM. The TGI (HCT-116) was 29.5 µM, the GI50 (MOLT-4) was 25.1 µM and the TGI (MOLT-4) was 97.7 µM. For the same compound, the GI50 (NCI-H226) was 20 µM, the TGI (NCI-H226) was 45.7 µM and the GI50 (K562) was 26.3 µM. The TGI (K562) was 79.4 µM.

`COc1ccc(NC(=O)CC2Sc3ncnn3C2=O)cc1` (stereo unspecified) was tested, and the GI50 (NCI/ADR-RES) was 31.6 µM, the TGI (NCI/ADR-RES) was greater than 100 µM and the GI50 (HOP-62) was greater than 100 µM. It also gave a TGI (HOP-62) greater than 100 µM, a GI50 (NCI-H522) of 19.5 µM and a TGI (NCI-H522) of 43.7 µM. The GI50 (A498) was 21.4 µM, the TGI (A498) was 57.5 µM and the GI50 (BT-549) was greater than 100 µM. It also gave a TGI (BT-549) greater than 100 µM, a GI50 (EKVX) of 35.5 µM and a TGI (EKVX) greater than 100 µM. It also gave a GI50 (DU-145) of 57.5 µM, a TGI (DU-145) greater than 100 µM and a GI50 (NCI-H23) of 20 µM. For the same compound, the TGI (NCI-H23) was 37.2 µM, the GI50 (HT-29) was 47.9 µM and the TGI (HT-29) was greater than 100 µM. It also gave a GI50 (HL-60) of 27.5 µM, a TGI (HL-60) greater than 100 µM and a GI50 (SK-MEL-2) greater than 100 µM. The TGI (SK-MEL-2) was greater than 100 µM, the GI50 (786-0) was 16.6 µM and the TGI (786-0) was 30.9 µM. For the same compound, the GI50 (SF-539) was 26.9 µM, the TGI (SF-539) was 55 µM and the GI50 (RXF 393) was 15.5 µM. The TGI (RXF 393) was 41.7 µM, the GI50 (T47D) was 37.2 µM and the TGI (T47D) was greater than 100 µM. The GI50 (HCT-116) was 17 µM, the TGI (HCT-116) was 30.9 µM and the GI50 (MOLT-4) was 28.8 µM. It also gave a TGI (MOLT-4) of 70.8 µM, a GI50 (NCI-H226) of 22.9 µM and a TGI (NCI-H226) of 42.7 µM. It also gave a GI50 (K562) of 31.6 µM and a TGI (K562) greater than 100 µM.

In the case of `O=C(CC1Sc2ncnn2C1=O)Nc1ccc(Cl)cc1` (stereo unspecified), the GI50 (NCI/ADR-RES) is reported as 38 µM, the TGI (NCI/ADR-RES) is reported as greater than 100 µM and the GI50 (HOP-62) is reported as greater than 100 µM. The TGI (HOP-62) was greater than 100 µM, the GI50 (NCI-H522) was 26.9 µM and the TGI (NCI-H522) was 64.6 µM. It also gave a GI50 (A498) greater than 100 µM, a TGI (A498) greater than 100 µM and a GI50 (BT-549) of 37.2 µM. For the same compound, the TGI (BT-549) was 95.5 µM, the GI50 (EKVX) was greater than 100 µM and the TGI (EKVX) was greater than 100 µM. It also gave a GI50 (DU-145) greater than 100 µM, a TGI (DU-145) greater than 100 µM and a GI50 (NCI-H23) of 23.4 µM. It also gave a TGI (NCI-H23) of 70.8 µM, a GI50 (HT-29) of 28.8 µM and a TGI (HT-29) of 75.9 µM. For the same compound, the GI50 (SK-MEL-2) was greater than 100 µM, the TGI (SK-MEL-2) was greater than 100 µM and the GI50 (786-0) was 20.4 µM. The TGI (786-0) was 43.7 µM, the GI50 (SF-539) was 31.6 µM and the TGI (SF-539) was 74.1 µM. The GI50 (RXF 393) was 25.1 µM, the TGI (RXF 393) was 51.3 µM and the GI50 (SNB-19) was greater than 100 µM. It also gave a TGI (SNB-19) greater than 100 µM, a GI50 (T47D) of 24 µM and a TGI (T47D) of 61.7 µM. It also gave a GI50 (HCT-116) of 20 µM, a TGI (HCT-116) of 30.9 µM and a GI50 (MOLT-4) of 20 µM. The TGI (MOLT-4) was 47.9 µM, the GI50 (NCI-H226) was 91.2 µM and the TGI (NCI-H226) was greater than 100 µM. It also gave a GI50 (K562) of 19.1 µM and a TGI (K562) of 43.7 µM.

In the case of `O=C(CC1Sc2ncnn2C1=O)Nc1ccccc1` (stereo unspecified), the GI50 (NCI/ADR-RES) is reported as 63.1 µM, the TGI (NCI/ADR-RES) is reported as greater than 100 µM and the GI50 (HOP-62) is reported as greater than 100 µM. For the same compound, the TGI (HOP-62) was greater than 100 µM, the GI50 (NCI-H522) was 21.9 µM and the TGI (NCI-H522) was 42.7 µM. For the same compound, the GI50 (BT-549) was 0.339 µM, the TGI (BT-549) was 1 µM and the TGI (EKVX) was 64.6 µM. It also gave a GI50 (NCI-H23) of 0.115 µM, a TGI (NCI-H23) of 9.12 µM and a GI50 (HT-29) greater than 100 µM. It also gave a TGI (HT-29) greater than 100 µM, a GI50 (SK-MEL-2) of 21.9 µM and a TGI (SK-MEL-2) of 53.7 µM. The GI50 (786-0) was 19.5 µM, the TGI (786-0) was 36.3 µM and the GI50 (SNB-75) was 31.6 µM. For the same compound, the TGI (SNB-75; read-out: Log TGI (converted)) was 85.1 µM, the GI50 (RXF 393) was 18.6 µM and the TGI (RXF 393) was 42.7 µM. It also gave a GI50 (SNB-19) greater than 100 µM, a TGI (SNB-19) greater than 100 µM and a GI50 (T47D) of 39.8 µM. It also gave a TGI (T47D) greater than 100 µM, a GI50 (HCT-116) of 32.4 µM and a TGI (HCT-116) greater than 100 µM.
